From US20070155693A1, “Inhibitor of cancer bone metastasis” (ORIENT CANCER THERAPY CO., LTD., priority 2004, published 2007)

Tests used:
bone metastasis = assay: Clinical cases: bone metastasis marker 1CTP; assay type: in vivo, human; details: Example 1, prostate cancer and ischial bone metastasis; Iressa added to NITC
Text: Effects of inhibiting bone metastasis were confirmed by the variation of 1CTP which is a bone metastasis marker. 1CTP has been practically used as a specific marker for bone resorption and there is, for example, 1CTP kit supplied by Orion (Clin. Chem. 39: 635-640, 1993). The kit uses a decalcified human thigh bone, which is degraded and purified in vitro by a purified bacterial collagenase, as an antigen (1CTP), to immunize a rabbit to produce an antibody, and the antigen is labeled with ^125I to make competitive radioimmunoassay (RIA). Its measuring sensitivity is 0.5 ng/ml or less and the measurement is possible to at least 50 ng/ml. Further, the mean value in blood level of 287 cases from 25-year old to 72-year old is 3.00±1.12 ng/ml (average±S.D.). 1CTP in blood has shown abnormal values in various metabolic bone diseases such as bone metastasis and hyperparathyroidism by now, and further has also been recognized to correlate with therapeutic process. The kit to measure 1CTP is a known clinical diagnosis one, and there is a RIA kit, pyridinoline 1CTP “Chugai” manufactured by Chugai Diagnostics Science Co., Ltd. Specifically, it is a radioimmunoassay reagent using ^125I as a label. However, other well known reagents such as enzyme immunoassay reagent using an enzyme labeling and fluorescence immunoassay reagent using a fluorescent substance can of course be applied. […]

bone metastasis pain = assay: Clinical cases: pain from bone metastasis; assay type: in vivo, human; details: for generalized bone pain: morphine 240 mg/day, Leuplin hormone therapy, Iressa 250 mg/day
Method: (§1) A prostate cancer patient having been diagnosed as ischial bone metastasis received the hormone therapy of Casodex and Leuplin. NITC was started on Jun. 11, 200X. […] On Sep. 18, 200X, severe low back pain and left hip joint and hip (ischial bone metastasis) pains were appeared, so morphine (MS Contin 40 mg/day) was used. From Oct. 29, 200X, Iressa 1T (250 mg/day) was started to use. Two months after the administration of Iressa, as the pains in low back, left hip joint and hip were alleviated, the administration of MS Contin decreased to 20 mg/day.
(§2) From Jul. […] From Aug. 17, 200X, Iressa 1T (250 mg/day) was initiated. […] Currently, Iressa is only temporarily and orally administered as a painkiller, when pain appears.

prostate cancer = assay: Clinical cases: prostate cancer markers PSA and PAP; assay type: in vivo, human; details: Example 1, prostate cancer and ischial bone metastasis; Iressa added to NITC
Method: Abbreviations expressed were based on each general expression way.
as §1, §2

[1] = test system: non-small cell lung cancer and prostate cancer; details: clinical data; cited from earlier work

Row | Structure (SMILES) | 1CTP (bone metastasis marker) (bone metastasis) | pains in low back, left hip joint and hip (bone metastasis pain; Example 1, two months after the administration of Iressa 250 mg/day) | effect as painkiller compared with morphine (bone metastasis pain; Example 2) | pains after dose reduction (bone metastasis pain; Example 2, Iressa decreased to 250 mg/alternate day and 250 mg/three days) | generalized bone pain (bone metastasis pain; Example 2) | PSA and PAP (prostate cancer markers) (prostate cancer) | CR (complete remission) [1]
1 | COc1cc2ncnc(Nc3ccc(F)c(Cl)c3)c2cc1OCCCN1CCOCC1 [Iressa] | the increase of 1CTP also terminated, showing a tendency to decrease | alleviated | stronger effect than morphine | pains disappeared | alleviated significantly | kept decreasing significantly | almost nothing
2 | CCNC(=O)[C@@H]1CCCN1C(=O)[C@H](CCCNC(=N)N)NC(=O)[C@H](CC(C)C)NC(=O)[C@@H](CC(C)C)NC(=O)[C@H](Cc1ccc(O)cc1)NC(=O)[C@H](CO)NC(=O)[C@H](Cc1c[nH]c2ccccc12)NC(=O)[C@H](Cc1c[nH]cn1)NC(=O)[C@@H]1CCC(=O)N1 [Leuplin] |  |  |  |  | the pain was not weakened |  | 
3 | CN1CC[C@]23c4c5ccc(O)c4O[C@H]2[C@@H](O)C=C[C@H]3[C@H]1C5 [morphine] |  |  |  |  | could not alleviate the pain |  | 
